Results reported in US20110251188A1, “ACENAPHTHO HETEROCYCLE COMPOUNDS, CYCLODEXTRIN INCLUSION COMPOUNDS AND COMPLEXES, AND USES IN THE MANUFACTURES OF BH3 PROTEIN ANALOGUE, BCL-2 FAMILY PROTEIN INHIBITORS THEREOF” (DALIAN UNIVERSITY OF TECHNOLOGY, priority 2008, published 2011).
Converted amounts (≈) assume the structure as drawn. Where two headings read alike, the source gives them in different places. One block for each compound: values may come before it.

Legend:
[1] = phase solubility experiment (solubility in water before and after cyclodextrin inclusion or complexation); conditions: for solubility: thermodynamic from solid, Solubility of compounds
[2] = target: T1, GST-Bcl-2 protein (Homo sapiens, UniProt P10415); experiment: fluorescence polarization assay, competitive binding against FAM-Bid peptide; conditions: Table 3; FAM-Bid competition; table does not say whether Bcl-2 or Mcl-1; read-out: Binding constant
T1 construct: fused on or other part: GST tag on Bcl-2
T1 sequence (P10415 whole entry, the tested form may be a part): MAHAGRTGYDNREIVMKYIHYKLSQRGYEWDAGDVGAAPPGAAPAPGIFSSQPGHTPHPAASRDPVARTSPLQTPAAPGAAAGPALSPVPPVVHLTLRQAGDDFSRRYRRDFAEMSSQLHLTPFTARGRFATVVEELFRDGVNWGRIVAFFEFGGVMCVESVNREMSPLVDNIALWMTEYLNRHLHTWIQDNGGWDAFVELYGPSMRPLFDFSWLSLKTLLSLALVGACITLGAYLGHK
Experimental: A Bid BH3 peptide (amino acids: 79-99: […]) having 21 amino acids was synthesized and marked with 6-carboxyfluorescein N-succinimidyl ester (FAM) as fluorescent tag (FAM-Bid) at the N-terminal. The reaction system used in the competitive binding experiment was GST-Bcl-2 protein (40 nM) or Mcl-1 protein, which was dissolved in the reaction buffer (100 mM K3PO4, pH 7.5; 100 μg/ml bovine γ albumin; 0.02% sodium azide) together with FAM-Bid polypeptide (5 nM). In a 96-well plate, 100 μL of the reaction system was added into each well. Then 1 μL different concentration of 3-thiomorpholinyl-8-oxo-8H-acenaphtho[1,2-b]pyrrole-9-carbonitrile mother solution to be detected dissolved in DMSO was added thereinto until the final concentration met the experimental design requirements. Meanwhile, two control groups were established, one with the reaction system only contains Bcl-2 or Mcl-1 and FAM-Bid (equivalent to 0% inhibition rate), the other with the reaction system only containing FAM-Bid peptide. After 4 hours of incubation, the 96-well plate was detected by enzyme-labelled meter. The fluorescent polarization value (mP) was tested at […]. Ki value was deduced according to calculation formula. The competitive binding constant between the compound and Bcl-2 was 310 nM.

[3] = tested on: Mcl-1; experiment: Western blotting, inhibition (downregulation) of Mcl-1 in tumor cells, Example 23; assay type: cell-based; conditions: for inhibition against Mcl-1: Western blotting, tumor cells
Experimental: (§1) The interest protein was detected by the corresponding antibody. The expression of the interest protein in the cells was detected by horseradish peroxidase-labeled secondary antibodies in combination with ECL coloration method. […] The concentration of the protein bands in the Western images were carried out semiquantitative analysis and normalization treatment with KODAK Gel Logic 1500 imaging system software.

[4] = tested on: Bax protein; experiment: co-localization between Bax protein and chondriosome, Bax-YFP transfected MCF-7 cells; assay type: cell-based; conditions: for Time for which the compound drove the BAX to shift towards the chondriosome: goes with the concentration of E14; for Concentration at which the compound drove the BAX to shift towards the chondriosome: goes with the time of E15
Experimental: 5 ng of Bax-YFP plasmid was transfected into MCF-7 cells by using calcium phosphate coprecipitation method, 24 hours later, the cells were inoculated in a 6-well plate (0.2×10^6 cells/well), and 10 μM of the compound 3-thiomorpholinyl-8-oxo-8 H-acenaphtho[1,2-b]pyrrole-9-carbonitrile to be detected was added thereinto. 6 hours later, the cells were washed with PBS and hatched away from light with 50 nM Mito Tracker Red CMXRos (chondriosome specific probes; red) for 10 minutes. Then the cells were washed with PBS for three times, and the fluorescent image was scanned with Radiance2000 laser confocal microscopy (Bio-Rad, USA). Meanwhile, dual channel scanning was carried out, one channel was used to scan the green fluorescence of Bax-YFP, and the other channel was used to scan the red fluorescence of the CMXRos probe for indicating the chondriosome. […] When the Bax protein was localized on the chondriosome, the green and red fluorescence was superimposed into orange, as shown in FIG. 4.
Other 8 compounds were detected by the same experimental method as described above. […] Wherein the concentration and time meant that the detected compound simulated the BH3-only protein and driven the BAX to shift towards the chondriosome at the concentration for the time period.

[5] = target: T2, interaction between Bcl-2 and Bax (Homo sapiens, UniProt P10415); experiment: intracellular fluorescence polarization energy transfer (FRET), Hela cells transfected with Bcl-2-CFP and Bax-YFP; assay type: cell-based; conditions: for Time for which the compound interfered with the interaction between Bcl-2 and Bax: goes with the concentration of E11; for Concentration at which the compound interfered with the interaction between Bcl-2 and Bax: goes with the time of E12
T2 construct: expressed in transfected cells; host or cells: Hela cells
T2 sequence (P10415 whole entry): as the sequence (P10415 whole entry, the tested form may be a part) above
Experimental: 24 hours later (please refer to FIG. 2), the cells were washed with PBS for three times. The fluorescence value was detected by GENIOS fluorescence enzyme-labelled meter (TECAN, Swiss). In time-dependent experiment, the transfected cells were inoculated in a 6-well plate, after that, 40 μM of the compound was added thereinto. 3, 6 and 24 hours later (FIG. 3), the fluorescence intensities were detected by plate reader. As for the cell group in which only Bcl-2-CFP plasmid was transfected, the values at 475 nm emission wave length and 433 nm excitation wave length were recorded. As for the cell group in which only Bax-YFP plasmid was transfected, the values at 527 nm emission wave length and 505 nm excitation wave length were recorded. […] The ratio of fluorescence intensity at 527 nm and 475 nm emission wave lengths was FRET. The FRET for the control group in which the plasmid was solely transfected was set as 1.0. […] The cellular vitality was detected by MTT method.
Wherein the concentration and time meant that the detected compound interfered with the interaction between Bcl-2 and Bax at the concentration for the time period.

[6] = tested on: Bcl-2; experiment: Western blotting, inhibition (downregulation) of Bcl-2 in tumor cells, Example 23; assay type: cell-based; conditions: for inhibition against Bcl-2: Western blotting, tumor cells
Experimental: as §1

[7] = tested on: MCF-7 cells; experiment: cytotoxicity depending on BAX/BAK, MTT, MCF-7 cells with or without BAX/BAK interfering plasmid; assay type: cell-based
Experimental: 3 ng of BAX/BAK interfering plasmid was transfected into MCF-7 cells by using calcium phosphate coprecipitation method, 24 hours later, the cells were collected. The expressions after the BAX and BAK proteins interfered with RNA was detected by Western, and the cell groups without plasmid transfection were treated similarly and were set as the control group. The transfected cells were inoculated in a 96-well plate (1×10^5 cells/well), the control experiment of the cell group without plasmid transfection was carried out in parallel. The compound 3-thiomorpholinyl-8-oxo-8 H-acenaphtho[1,2-b]pyrrole-9-carbonitrile to be detected was added thereinto according to the concentration gradient designed before the experiment. 48 hours later, the cellular vitality was detected by MTT. The experimental results were shown in FIG. 6, Gossypol as nonspecific BH3 analogue was treated in parallel.

[8] = tested on: hepatoma carcinoma cells H22; experiment: in vivo tumor model, subcutaneous H22 tumor in Kunming mice; conditions: H22 mouse model of Example 25; dose and route not stated at the place
Experimental: The Kunming mice (in China) were randomly divided into groups, with 10 mice in each group. The cultivated hepatoma carcinoma cells H22 were inoculated subcutaneously in the oxter of the mice with 200 μL/mouse. After bearing the cancer cells for five days, the subcutaneous tumor was formed. Then the compound 3-thiomorpholinyl-8-oxo-8H-acenaphtho[1,2-b]pyrrole-9-carbonitrile and γ-cyclodextrin inclusion compound thereof were given by peritoneal injection, and the compound to be detected included by γ-cyclodextrin was given by oral administration. The detection conditions comprise:
Blank control group: the mice were not treated in any manner after the bearing cancer;
Control group (1): the mice were given a peritoneal injection of DMSO solution every other day after the bearing cancer, 10 days in total;
Control group (2): the mice were given a peritoneal injection of cyclodextrin solution every other day after the bearing cancer, 10 days in total;
Experimental group (1): the mice were given a peritoneal injection of DMSO solution equivalent to 0.03 mg/kg BW compound every other day after the bearing cancer, 10 days in total;
Experimental group (2): the mice were given a peritoneal injection of DMSO solution equivalent to 0.3 mg/kg BW compound every other day after the bearing cancer, 10 days in total;
Experimental group (3): the mice were given a peritoneal injection of inclusion compound water solution equivalent to 0.3 mg/kg BW compound every other day after the bearing cancer, 10 days in total;
Experimental group (4): the mice were given an intragastric administration of inclusion compounds water solution equivalent to 0.3 mg/kg BW compound every other day after the bearing cancer, 10 days in total;
During the experimental period, the length-diameter (a) and short diameter (b), which was perpendicular to the length-diameter, of the tumor were detected twice every week. The gross tumor volume was determined according to the formula: ½ab^2. The survival time of the animal was observed. The tumor inhibition rate was calculated by the tumor volume on the fortieth day.

[9] = Table 1, compound per se, before inclusion

solubility [1, 9]: 0.32 µM (≈ 0.113 µg/mL)
Compound: COc1ccc(Oc2ccc3c4c(cccc24)C2=NC(=O)C(C#N)=C23)cc1 [3-(4-methoxyphenoxy)-8-oxo-8H-acenaphtho[1,2-b]pyrrole-9-carbonitrile]

solubility [1, 9]: 0.22 µM (≈ 0.0744 µg/mL)
Compound: N#CC1=C2C(=NC1=O)c1cccc3c(Sc4ccccc4)ccc2c13 [3-phenylthio-8-oxo-8H-acenaphtho[1,2-b]pyrrole-9-carbonitrile]

solubility [1, 9]: 0.25 µM (≈ 0.0884 µg/mL)
Compound: N#CC1=C2C(=NC1=O)c1cccc3c(Sc4ccc(N)cc4)ccc2c13 [3-(4-aminophenylthio)-8-oxo-8H-acenaphtho[1,2-b]pyrrole-9-carbonitrile]

solubility [1, 9]: 0.25 µM (≈ 0.0841 µg/mL)
Compound: Cc1ccc(Oc2ccc3c4c(cccc24)C2=NC(=O)C(C#N)=C23)cc1 [3-(p-methylphenoxy)-8-oxo-8H-acenaphtho[1,2-b]pyrrole-9-carbonitrile]

solubility [1, 9]: 0.12 µM (≈ 0.0437 µg/mL)
Compound: CC(C)c1ccc(Oc2ccc3c4c(cccc24)C2=C(C#N)C(=O)N=C23)cc1 [4-(4-isopropylphenoxy)-8-oxo-8H-acenaphtho[1,2-b]pyrrole-9-carbonitrile]

solubility ([1]; Table 2, compound per se, before complexation): 0.55 µM (≈ 0.24 µg/mL)
Compound: O=C(O)C1=C2C(=NC1=O)c1cccc3c(Sc4ccc(Br)cc4)ccc2c13 [3-(4-bromophenylthio)-8-oxo-8H-acenaphtho[1,2-b]pyrrole-9-carboxylic acid]
tumor inhibition rate [8]: 45%

Time for which the compound interfered with the interaction between Bcl-2 and Bax [5]: 6 h
Concentration at which the compound interfered with the interaction between Bcl-2 and Bax [5]: 10.0 µM
Compound: N#CC1=C2C(=NC1=O)c1cccc3c(C(=O)c4cccc(F)c4)ccc2c13 [3-(3-fluorophenylformyl)-8-oxo-8H-acenaphtho[1,2-b]pyrrole-9-carbonitrile]
dependence of cytotoxicity on BAX/BAK [7]: absolute dependence on BAX/BAK

Continued, compound first:

Compound: N#CC1=C2C(=NC1=O)c1c(OCc3cccs3)ccc3cccc2c13 [6-(thienyl-2-methoxy)-8-oxo-8H-acenaphtho[1,2-b]pyrrole-9-carbonitrile]
Ki [2]: 560 nM
downregulation of Mcl-1 protein, semiquantitative analysis (band concentration, control = 1) ([3]; 6 hours): 0.99
downregulation of Mcl-1 protein, semiquantitative analysis (band concentration, control = 1) ([3]; 12 hours): 0.99
downregulation of Mcl-1 protein, semiquantitative analysis (band concentration, control = 1) ([3]; 18 hours): 0.54
downregulation of Mcl-1 protein, semiquantitative analysis (band concentration, control = 1) ([3]; 24 hours): 0.33
inhibition against Mcl-1 [3]: had the inhibition against Bcl-2 and Mcl-1 proteins
Time for which the compound drove the BAX to shift towards the chondriosome [4]: 6 h
Concentration at which the compound drove the BAX to shift towards the chondriosome [4]: 10.0 µM
Time for which the compound interfered with the interaction between Bcl-2 and Bax [5]: 6 h
Concentration at which the compound interfered with the interaction between Bcl-2 and Bax [5]: 10.0 µM
Solubility of compounds [1, 9]: 0.35 µM
downregulation of Bcl-2 protein, semiquantitative analysis (band concentration, control = 1) ([6]; 2 hours): 0.69
downregulation of Bcl-2 protein, semiquantitative analysis (band concentration, control = 1) ([6]; 6 hours): 0.40
inhibition against Bcl-2 [6]: had the inhibition against Bcl-2 and Mcl-1 proteins
dependence of cytotoxicity on BAX/BAK ([7]; MCF-7 cells, 48 hours, MTT): absolute dependence on BAX/BAK

Compound: N#CC1=C2C(=NC1=O)c1cccc3c(OC4CCOCC4)ccc2c13 [3-(tetrahydro-2H-pyranyl-4-oxo)-8-oxo-8H-acenaphtho[1,2-b]pyrrole-9-carbonitrile]
Ki [2]: 600 nM

Compound: NC(=O)C1=C2C(=NC1=O)c1cccc3c(N4CCSCC4)ccc2c13 [3-thiomorpholinyl-8-oxo-8H-acenaphtho[1,2-b]pyrrole-9-carboxamide]
tumor inhibition rate [8]: 45%

Compound: N#CC1=C2C(=NC1=O)c1ccc(Oc3ccccc3)c3cccc2c13 [4-phenoxy-8-oxo-8H-acenaphtho[1,2-b]pyrrole-9-carbonitrile]
Ki [2]: 890 nM
Time for which the compound drove the BAX to shift towards the chondriosome [4]: 6 h
Concentration at which the compound drove the BAX to shift towards the chondriosome [4]: 10.0 µM
Time for which the compound interfered with the interaction between Bcl-2 and Bax [5]: 6 h
Concentration at which the compound interfered with the interaction between Bcl-2 and Bax [5]: 10.0 µM

Compound: 3-phenoxy-8-oxo-8H-acenaphtho[1,2-b]pyrrole-9-carboxylate
Ki [2]: 790 nM
Time for which the compound interfered with the interaction between Bcl-2 and Bax [5]: 6 h
Concentration at which the compound interfered with the interaction between Bcl-2 and Bax [5]: 10.0 µM

Compound: O=C(O)C1=C2C(=NC1=O)c1cccc3c(Oc4ccccc4)ccc2c13 [3-phenoxy-8-oxo-8H-acenaphtho[1,2-b]pyrrole-9-carboxylic acid]
Time for which the compound drove the BAX to shift towards the chondriosome [4]: 6 h
Concentration at which the compound drove the BAX to shift towards the chondriosome [4]: 10.0 µM
dependence of cytotoxicity on BAX/BAK [7]: absolute dependence on BAX/BAK

Compound: CC(C)(C)NC(=O)C1=C2C(=NC1=O)c1cccc3c(Oc4ccccc4)ccc2c13 [3-phenoxy-8-oxo-8H-acenaphtho[1,2-b]pyrrole-9-N-tert-butylamide]
downregulation of Mcl-1 protein, semiquantitative analysis (band concentration, control = 1) ([3]; 6 hours): 0.99
downregulation of Mcl-1 protein, semiquantitative analysis (band concentration, control = 1) ([3]; 12 hours): 0.99
downregulation of Mcl-1 protein, semiquantitative analysis (band concentration, control = 1) ([3]; 18 hours): 0.78
downregulation of Mcl-1 protein, semiquantitative analysis (band concentration, control = 1) ([3]; 24 hours): 0.51
inhibition against Mcl-1 [3]: had the inhibition against Bcl-2 and Mcl-1 proteins
downregulation of Bcl-2 protein, semiquantitative analysis (band concentration, control = 1) ([6]; 2 hours): 0.80
downregulation of Bcl-2 protein, semiquantitative analysis (band concentration, control = 1) ([6]; 6 hours): 0.56
inhibition against Bcl-2 [6]: had the inhibition against Bcl-2 and Mcl-1 proteins
